Source: ChEMBL document CHEMBL1136837, “Unified QSAR approach to antimicrobials. 4. Multi-target QSAR modeling and comparative multi-distance study of the giant components of antiviral drug-drug complex networks” (Bioorg Med Chem, 2009)

Columns and labels:
Simplexvirus = experiment: Antiviral activity against Herpes simplex virus; assay type: functional, organism-based
Vaccinia virus = experiment: Antiviral activity against Vaccinia virus; assay type: functional, organism-based, Orthopoxvirus vaccinia
Influenza A virus = experiment: Antiviral activity against influenza H1N1 virus; assay type: functional, organism-based
Influenza A virus H3N2 = experiment: Antiviral activity against influenza H3N2 virus; assay type: functional, organism-based, H3N2 subtype
Influenza B virus = experiment: Antiviral activity against influenza B virus; assay type: functional, organism-based
Hepatitis B virus = experiment: Antiviral activity against Hepatitis B virus; assay type: functional, organism-based
Human alphaherpesvirus 3 = experiment: Antiviral activity against Varicella zoster virus; assay type: functional, organism-based
[1] = test system: Human immunodeficiency virus 1; experiment: Antiviral activity against HIV1; assay type: functional, organism-based
Human gammaherpesvirus 4 = experiment: Antiviral activity against Epstein-Barr virus; assay type: functional, organism-based
[2] = test system: Moloney murine sarcoma virus; experiment: Antiviral activity against Moloney sarcoma virus; assay type: functional, organism-based
Human alphaherpesvirus 1 = experiment: Antiviral activity against Herpes simplex virus 1; assay type: functional, organism-based; conditions: Human alphaherpesvirus 1
Picornaviridae = experiment: Antiviral activity against Human picornavirus; assay type: functional, organism-based
H2N2 subtype = experiment: Antiviral activity against influenza H2N2 virus; assay type: functional, organism-based; conditions: Influenza A virus
Human betaherpesvirus 6 [3] = experiment: Antiviral activity against Human herpesvirus 6B; assay type: functional, organism-based
Human betaherpesvirus 6 [4] = experiment: Antiviral activity against Human herpesvirus 6A; assay type: functional, organism-based
Cowpox virus = experiment: Antiviral activity against Cowpox virus; assay type: functional, organism-based
Human adenovirus 2 = experiment: Antiviral activity against Human adenovirus 2; assay type: functional, organism-based; conditions: Human mastadenovirus C
Human betaherpesvirus 5 = experiment: Antiviral activity against Human cytomegalovirus; assay type: functional, organism-based; conditions: Human betaherpesvirus 5
Monkeypox virus = experiment: Antiviral activity against Monkeypox virus; assay type: functional, organism-based
Human gammaherpesvirus 8 = experiment: Antiviral activity against Human herpesvirus 8; assay type: functional, organism-based
Human alphaherpesvirus 2 = experiment: Antiviral activity against Herpes simplex virus 2; assay type: functional, organism-based; conditions: Human alphaherpesvirus 2

`CCCCCCCCCCCCCCCCCCOCCOP(=O)(O)CO[C@H](CO)Cn1ccc(N)nc1=O` gave an IC50 (Simplexvirus) of 0.001 µM and an IC50 (Vaccinia virus; Orthopoxvirus vaccinia) of 0.24 µM.

Compound `NC12CC3CC(CC(C3)C1)C2` [AMANTADINE] has an IC50 (Influenza A virus) of 50 µM, an IC50 (Influenza A virus H3N2) of 0.63 µM and an IC50 (Influenza B virus) of 50 µM.

In the case of `Cc1cn(/C=C2\CC2(F)CO)c(=O)[nH]c1=O` (stereo unspecified), the IC50 (Hepatitis B virus) is reported as 20 µM, the IC50 (Human alphaherpesvirus 3) is reported as 442 µM and the IC50 [1] is reported as 100 µM. The IC50 (Human gammaherpesvirus 4) was 20 µM.

`Nc1cc(OCCOCP(=O)(O)O)ncn1` was tested, and the IC50 [2] was 5.22 µM and the IC50 (Human alphaherpesvirus 1) was 6.43 µM.

Compound `CNC(=O)/C=C(\c1ccc(C)cc1)c1ccc2nc(NCC(=O)NC)c(-c3ccc(F)cc3)n2n1` has an IC50 (Picornaviridae) of 0.23 µM.

`CCC(CC)O[C@@H]1C=C(C(=O)O)C[C@H](N)[C@H]1NC(C)=O` [OSELTAMIVIR CARBOXYLATE] was tested, and the IC50 (Influenza A virus) was 0.0039 µM, the IC50 (Influenza A virus H3N2) was 0.0006 µM and the IC50 (H2N2 subtype) was 0.00017 µM. It also gave an IC50 (Influenza B virus) of 0.015 µM.

With `OC[C@H]1O[C@@H](n2c(Br)nc3cc(Cl)c(Cl)cc32)[C@H](O)[C@@H]1O` the IC50 (Human betaherpesvirus 6 [3]) was 125 µM and the IC50 (Human betaherpesvirus 6 [4]) was 125 µM.

`Nc1nc(O)cc(NC2CC2)n1` was tested, and the IC50 [2] was 0.000801 µM and the IC50 (Human alphaherpesvirus 1) was 0.00241 µM.

`O=C(NCc1ccc(Cl)cc1)c1cnc2ccc(C#CCO)cc2c1O` gave an IC50 (Simplexvirus) of 20 µM and an IC50 (Human alphaherpesvirus 3) of 0.68 µM.

Compound `Nc1ccn([C@@H]2CS[C@H](CO)O2)c(=O)n1` [LAMIVUDINE] has an IC50 (Cowpox virus) of 436 µM, an IC50 (Human adenovirus 2) of 100 µM and an IC50 (Vaccinia virus; Orthopoxvirus vaccinia) of 436 µM.

For `Nc1ncnc2c1ncn2C[C@@H](CO)OCP(=O)(O)O`, the IC50 (Cowpox virus) was 5 µM, the IC50 (Human adenovirus 2) was 0.63 µM and the IC50 (Vaccinia virus; Orthopoxvirus vaccinia) was 3.5 µM.

Compound `Nc1ccn(C[C@@H](CO)OCP(=O)(O)O)c(=O)n1` (stereo in doubt; form 1) [CIDOFOVIR] has an IC50 (Cowpox virus) of 48 µM, an IC50 (Simplexvirus) of 3.3 µM and an IC50 (Human adenovirus 2) of 3.1 µM. It also gave an IC50 (Human betaherpesvirus 5) of 0.06 µM, an IC50 (Vaccinia virus) of 23 µM and an IC50 (Monkeypox virus) of 505 µM.

For `Nc1nc2c(ncn2/C=C2\CC2(F)CO)c(=O)[nH]1` (stereo unspecified), the IC50 (Hepatitis B virus) was 20 µM, the IC50 (Human alphaherpesvirus 3) was 79.6 µM and the IC50 [1] was 100 µM. It also gave an IC50 (Human gammaherpesvirus 4) of 20 µM.

In the case of `CCC(CC)C(NC(C)=O)C1CC(C(=O)O)CC1NC(=N)N` (stereo unspecified), the IC50 (Influenza A virus) is reported as 0.64 µM.

For `Cc1cn(/C=C2/CC2(F)CO)c(=O)[nH]c1=O` (stereo unspecified), the IC50 (Hepatitis B virus) was 20 µM, the IC50 (Human alphaherpesvirus 3) was 0.62 µM and the IC50 [1] was 100 µM. The IC50 (Human gammaherpesvirus 4) was 51.7 µM.

`CNC(=O)/C=C(\c1ccccc1)c1ccc2nc(NCC(=O)NC)c(-c3ccc(F)cc3)n2n1` showed an IC50 (Picornaviridae) of 0.11 µM.

In the case of `Nc1nc2c(ncn2/C=C2\CC2(CO)CO)c(=O)[nH]1`, the IC50 (Human betaherpesvirus 6 [3]) is reported as 43 µM, the IC50 (Human alphaherpesvirus 3) is reported as 380 µM and the IC50 (Human gammaherpesvirus 8) is reported as 190 µM. For the same compound, the IC50 (Human betaherpesvirus 5) was 123 µM, the IC50 (Human gammaherpesvirus 4) was 119 µM and the IC50 (Human alphaherpesvirus 2) was 380 µM. For the same compound, the IC50 (Human betaherpesvirus 6 [4]) was 116 µM and the IC50 (Human alphaherpesvirus 1) was 380 µM.

`CCCCCCCCCCCCCCCCOCCCOP1(=O)CO[C@@H](CN2CCC(N)=NC2=O)CO1` (stereo partly specified) gave an IC50 (Simplexvirus) of 0.04 µM, an IC50 (Human betaherpesvirus 5) of 0.04 µM and an IC50 (Vaccinia virus; Orthopoxvirus vaccinia) of 5.6 µM.

`Nc1ncnc2c1ncn2/C=C1/CC1(CO)CO` showed an IC50 (Human alphaherpesvirus 3) of 404 µM, an IC50 (Human gammaherpesvirus 8) of 57 µM and an IC50 (Human betaherpesvirus 5) of 12 µM. It also gave an IC50 (Human gammaherpesvirus 4) of 166 µM, an IC50 (Human alphaherpesvirus 2) of 404 µM and an IC50 (Human alphaherpesvirus 1) of 404 µM.

Compound `CCCC(CCC)C(NC(C)=O)C1CC(C(=O)O)CC1NC(=N)N` (stereo unspecified) has an IC50 (Influenza A virus) of 0.72 µM.

`Nc1nc2ccc(/C(=N/Nc3ccccc3)c3ccccc3)nn2c1-c1ccc(F)cc1` showed an IC50 (Picornaviridae) of 10 µM.

Work on `COc1nc(N)nc2c1ncn2/C=C1/CC1(CO)CO` yielded an IC50 (Human alphaherpesvirus 3) of 3 µM, an IC50 (Human gammaherpesvirus 4) of 161 µM and an IC50 (Human alphaherpesvirus 2) of 361 µM. The IC50 (Human alphaherpesvirus 1) was 361 µM.

Compound `Nc1ncnc2c1c(Br)cn2COC(CO)CO` has an IC50 (Simplexvirus) of 1.8 µM and an IC50 (Human betaherpesvirus 5) of 1.5 µM.

Work on `Nc1nc2c(ncn2COC(CO)CO)c(=O)[nH]1` [GANCICLOVIR] yielded an IC50 (Human adenovirus 2) of 35 µM and an IC50 (Vaccinia virus; Orthopoxvirus vaccinia) of 392 µM.

With `Nc1nc2c(ncn2/C=C2/CC2(CO)CO)c(=O)[nH]1` [FILOCICLOVIR] the IC50 (Human alphaherpesvirus 3) was 380 µM, the IC50 (Human gammaherpesvirus 4) was 45 µM and the IC50 (Human alphaherpesvirus 2) was 380 µM. The IC50 (Human alphaherpesvirus 1) was 380 µM.

In the case of `Cn1cnc2c(NCc3ccccc3)nc(NCCO)nc21` [OLOMOUCINE], the IC50 (Simplexvirus) is reported as 100 µM.
